Common to all, as to test: relative viability (nuclei count vs DMSO), 5 days (fraction); higher = more cells survive
Compound in test [1]: CCC1=CN=CN=C1N2CCN(CC2)CC3=NC4=C(N3)C=C(C=C4)C(F)(F)F + Cc1nc(Nc2ncc(C(=O)Nc3c(C)cccc3Cl)s2)cc(N2CCN(CCO)CC2)n1 [Dasatinib] (partner 0.075 µM)
In outline: (§1)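 Cells from lung cancer lines were seeded into 1536-well plates and, one day later, dosed by pin tool. Treatments were either a single drug or a fixed dose of an anchor drug with five library-drug doses (not always all listed) in √10 steps. After 5 days, nuclei were stained in a one-step fixation (final 0.05% Triton X-100, 1% formaldehyde, 1 ug/ml Hoechst) and counted on 4× images, and relative viability is the treated-to-vehicle nuclei ratio, as the median of duplicate plates.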

Compound in test [2]: CCn1c(-c2nonc2N)nc2cnc(Oc3cccc(NC(=O)c4ccc(OCCN5CCOCC5)cc4)c3)cc21 + Cc1nc(NC(=O)N2CCC[C@H]2C(N)=O)sc1-c1ccnc(C(C)(C)C(F)(F)F)c1 [Alpelisib] (partner 2 µM)
In outline: as §1

Compound in test [3]: CCC1=CN=CN=C1N2CCN(CC2)CC3=NC4=C(N3)C=C(C=C4)C(F)(F)F + CCNC(=O)c1noc(-c2cc(C(C)C)c(O)cc2O)c1-c1ccc(CN2CCOCC2)cc1 [Luminespib] (partner 0.01 µM)
A digest of the protocol: as §1

Compound in test [4]: CCn1c(-c2nonc2N)nc2cnc(Oc3cccc(NC(=O)c4ccc(OCCN5CCOCC5)cc4)c3)cc21 + CC1(C)CCC(c2ccc(Cl)cc2)=C(CN2CCN(c3ccc(C(=O)NS(=O)(=O)c4ccc(N[C@H](CCN5CCOCC5)CSc5ccccc5)c(S(=O)(=O)C(F)(F)F)c4)cc3)CC2)C1 [Navitoclax] (partner 0.5 µM)
A digest of the protocol: as §1

For UMC-11, the relative viability in test [1] (first compound 0.04 µM) came out at 0.531; in test [1] (first compound 0.1265 µM), 0.436; in test [1] (first compound 0.4 µM), 0.42; in test [1] (first compound 1.265 µM), 0.398; in test [1] (first compound 4 µM), 0.492; in test [2] (first compound 0.04 µM), 1.17. Moreover, the relative viability in test [2] (first compound 0.1265 µM) was 0.991; in test [2] (first compound 0.4 µM) it was 0.78; in test [2] (first compound 1.265 µM) it was 0.251; in test [2] (first compound 4 µM), 0.233; in test [3] (first compound 0.04 µM), 0.974; in test [3] (first compound 0.1265 µM) it was 1.05. The relative viability in test [3] (first compound 0.4 µM) amounted to 0.917; in test [3] (first compound 1.265 µM) it was 0.902; in test [3] (first compound 4 µM), 0.746; in test [4] (first compound 0.04 µM) it was 0.349; in test [4] (first compound 0.1265 µM), 0.314; in test [4] (first compound 0.4 µM), 0.313. Further, the relative viability in test [4] (first compound 1.265 µM) is 0.151; in test [4] (first compound 4 µM), 0.144.

The record behind these values is the supplement of paper PMC10307832.
